Assay results published in patent publication US8354403B2, “Pyrrolidine derived beta 3 adrenergic receptor agonists” (Merck Sharp & Dohme Corp., priority 2009, dated 2013).
Like-named read-outs stand apart in the source and are kept apart here. Blank lines part the entries; values can stand above or below the compound they belong to.

Target: T1, human β3 adrenergic receptor (Homo sapiens, UniProt P13945)
T1 construct: expressed in transfected cells; host or cells: Chinese hamster ovary (CHO) cells, stably transfected
Assay: Beta-3 agonist in vitro functional assay: cAMP production (LANCE TR-FRET) in CHO cells stably transfected with the cloned β3 receptor
Assay type: cell-based
Details: read-out: Human β3 agonist functional activity
Outline: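 CHO cells stably expressing the cloned receptor, in HEPES-buffered HBSS with BSA and 0.6 mM IBMX, 6,000 cells/well, exposed to compound for 30 min at RT. cAMP read by LANCE TR-FRET against a cAMP standard curve. Isoproterenol defines maximal stimulation.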

[1] = Table 9, Beta-3 agonist in vitro functional assay
[2] = Table 8, Beta-3 agonist in vitro functional assay
[3] = Table 12, human β3 functional activity given as ranges
[4] = Table 10, Beta-3 agonist in vitro functional assay

T1 sequence (P13945 whole entry): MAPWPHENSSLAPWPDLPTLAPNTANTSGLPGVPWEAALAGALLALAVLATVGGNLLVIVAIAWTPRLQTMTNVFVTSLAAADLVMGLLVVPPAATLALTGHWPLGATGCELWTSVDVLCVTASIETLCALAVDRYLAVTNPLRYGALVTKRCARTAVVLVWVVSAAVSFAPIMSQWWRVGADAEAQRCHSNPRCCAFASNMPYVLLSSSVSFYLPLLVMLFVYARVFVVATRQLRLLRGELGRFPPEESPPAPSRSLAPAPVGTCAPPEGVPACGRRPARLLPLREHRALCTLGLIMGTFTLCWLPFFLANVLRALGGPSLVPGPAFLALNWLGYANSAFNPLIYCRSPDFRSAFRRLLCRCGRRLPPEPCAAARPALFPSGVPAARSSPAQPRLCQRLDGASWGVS

EC50 [1]: 1 to 9.9 nM
Structure (SMILES): CC(c1ccccn1)N1CCN(C(=O)c2ccc(CC3CCC(C(O)c4ccccc4)N3)cc2)CC1 (stereo not drawn) [Example 430]

EC50 [2]: 1 to 9.9 nM
Structure (SMILES): O=C1OC2(CCN(C(=O)c3ccc(C[C@@H]4CC[C@H]([C@H](O)c5ccccc5)N4)cc3)CC2)Cc2ccccc21 [Example 333]

EC50 (Table 4, cAMP, CHO cells): 100 to 999 nM
Structure (SMILES): O=C(c1ccc(C[C@@H]2CC[C@H]([C@H](O)c3ccccc3)N2)cc1)N1CCCC(c2nc3ccccc3[nH]2)C1 (stereo partly drawn) [Example 34]

EC50 [3]: 1 to 9.9 nM
Structure (SMILES): CCC1CC2(CCN(C(=O)c3ccc(CC4CCC(C(O)c5ccccc5)N4)cc3)CC2)C(=O)O1 (single isomer, unassigned) [Example 563]

EC50 [4]: 10 to 99.9 nM
Structure (SMILES): CCc1noc(CNC(=O)C(C)N2CCN(C(=O)c3ccc(C[C@@H]4CC[C@H]([C@H](O)c5ccccc5)N4)cc3)CC2)n1 (stereo partly drawn) [Example 465]

EC50 [1]: 10 to 99.9 nM
Structure (SMILES): O=C(c1ccc(C[C@@H]2CC[C@H]([C@H](O)c3ccccc3)N2)cc1)N1CCN(Cc2ncccc2O)CC1 [Example 413]

EC50 [1]: 10 to 99.9 nM
Structure (SMILES): CC(C)Oc1cccnc1CN1CCN(C(=O)c2ccc(C[C@@H]3CC[C@H]([C@H](O)c4ccccc4)N3)cc2)CC1 [Example 415]

EC50 (Table 5, cAMP, CHO cells): 10 to 99.9 nM
Structure (SMILES): COC(=O)c1ccccc1C1CCN(C(=O)c2ccc(C[C@@H]3CC[C@H]([C@H](O)c4ccccc4)N3)cc2)CC1 [Example 111]

EC50 (Table 11, cAMP, CHO cells): 100 to 999 nM
Structure (SMILES): O=C(c1ccc(C[C@@H]2CC[C@H]([C@H](O)c3ccccc3)N2)cc1)N1CC2CC1CN2Cc1ccccn1 (stereo partly drawn) [Example 534]

EC50 [2]: 10 to 99.9 nM
Structure (SMILES): Cc1ccc2c(c1)NC(=O)C21CCN(C(=O)c2ccc(C[C@@H]3CC[C@H]([C@H](O)c4ccccc4)N3)cc2)CC1 [Example 300]

EC50 [2]: 100 to 999 nM
Structure (SMILES): CC1(C)OCC2(CCN(C(=O)c3ccc(C[C@@H]4CC[C@H]([C@H](O)c5ccccc5)N4)cc3)CC2)C1O (stereo partly drawn) [Example 313]

EC50 (Table 5, cAMP, CHO cells): 10 to 99.9 nM
Structure (SMILES): O=C(c1ccc(C[C@@H]2CC[C@H]([C@H](O)c3ccccc3)N2)cc1)N1CCC(c2cccc(F)n2)CC1 [Example 112]

EC50 (Table 5, cAMP, CHO cells): 100 to 999 nM
Structure (SMILES): O=C(c1ccc(C[C@@H]2CC[C@H]([C@H](O)c3ccccc3)N2)cc1)N1CCC(c2ncccn2)CC1 [Example 114]

EC50 [4]: 100 to 999 nM
Structure (SMILES): CC(C(=O)N1CCC(O)C1)N1CCN(C(=O)c2ccc(C[C@@H]3CC[C@H]([C@H](O)c4ccccc4)N3)cc2)CC1 (stereo partly drawn) [Example 477]

EC50 [1]: 10 to 99.9 nM
Structure (SMILES): O=C(c1ccc(C[C@@H]2CC[C@H]([C@H](O)c3ccccc3)N2)cc1)N1CCN(Cc2ccccc2F)CC1 [Example 410]

EC50 [1]: 10 to 99.9 nM
Structure (SMILES): COc1cccnc1N1CCN(C(=O)c2ccc(C[C@@H]3CC[C@H]([C@H](O)c4ccccc4)N3)cc2)CC1 [Example 361]

EC50 [3]: 10 to 99.9 nM
Structure (SMILES): CC(c1nccs1)N1CCN(C(=O)c2ccc(CC3CCC(C(O)c4ccccc4)N3)cc2)CC1 (single isomer, unassigned) [Example 582]

EC50 [4]: 1 to 9.9 nM
Structure (SMILES): CC(C(=O)NCC1(C)CCC1)N1CCN(C(=O)c2ccc(C[C@@H]3CC[C@H]([C@H](O)c4ccccc4)N3)cc2)CC1 (stereo partly drawn) [Example 453]

EC50 [4]: 10 to 99.9 nM
Structure (SMILES): CC(C(=O)N(C1CC1)C1CC1)N1CCN(C(=O)c2ccc(C[C@@H]3CC[C@H]([C@H](O)c4ccccc4)N3)cc2)CC1 (stereo partly drawn) [Example 522]

EC50 (Table 5, cAMP, CHO cells): 10 to 99.9 nM
Structure (SMILES): O=C(c1ccc(C[C@@H]2CC[C@H]([C@H](O)c3cccnc3)N2)cc1)N1CCC(c2cccc(F)n2)CC1 [Example 113]

EC50 [3]: 10 to 99.9 nM
Structure (SMILES): O=C(c1ccc(CC2CCC(C(O)c3ccccc3)N2)cc1)N1CCN(C2CCN(c3ccccc3)C2=O)CC1 (single isomer, unassigned) [Example 606]

EC50 (Table 4, cAMP, CHO cells): 10 to 99.9 nM
Structure (SMILES): O=C(c1ccc(C[C@@H]2CC[C@H]([C@H](O)c3cccnc3)N2)cc1)N1CCC2Oc3ccccc3OC2C1 (stereo partly drawn) [Example 59]

EC50 [3]: 1 to 9.9 nM
Structure (SMILES): CC(c1ccccc1F)N1CCN(C(=O)c2ccc(CC3CCC(C(O)c4ccccc4)N3)cc2)CC1 (single isomer, unassigned) [Example 573]

EC50 [2]: 10 to 99.9 nM
Structure (SMILES): O=C1NC(=O)C2(CCN(C(=O)c3ccc(C[C@@H]4CC[C@H]([C@H](O)c5ccccc5)N4)cc3)CC2)N1 [Example 267]

EC50 [2]: 100 to 999 nM
Structure (SMILES): O=C(c1ccc(C[C@@H]2CC[C@H]([C@H](O)c3ccccc3)N2)cc1)N1CCC2(CCc3cn[nH]c32)CC1 [Example 321]

EC50 (Table 4, cAMP, CHO cells): 10 to 99.9 nM
Structure (SMILES): O=C(c1ccc(C[C@@H]2CC[C@H]([C@H](O)c3ccccc3)N2)cc1)N1CC2CC(n3ccnn3)CC2C1 (stereo partly drawn) [Example 21]

EC50 [4]: 100 to 999 nM
Structure (SMILES): CC(C(=O)NCc1nccn1C)N1CCN(C(=O)c2ccc(C[C@@H]3CC[C@H]([C@H](O)c4ccccc4)N3)cc2)CC1 (stereo partly drawn) [Example 463]

EC50 (Table 5, cAMP, CHO cells): 10 to 99.9 nM
Structure (SMILES): N#Cc1ccc(S(=O)(=O)C2CCN(C(=O)c3ccc(C[C@@H]4CC[C@H]([C@H](O)c5ccccc5)N4)cc3)CC2)cc1 [Example 137]

EC50 [2]: 10 to 99.9 nM
Structure (SMILES): CC(C)COc1ccc2c(c1)C(=O)CC1(CCN(C(=O)c3ccc(C[C@@H]4CC[C@H]([C@H](O)c5ccccc5)N4)cc3)CC1)O2 [Example 324]

EC50 [1]: 100 to 999 nM
Structure (SMILES): O=C(c1ccc(C[C@@H]2CC[C@H]([C@H](O)c3ccccc3)N2)cc1)N1CCN(C2(c3ccccn3)CC2)CC1 [Example 420]
